Counter-ions that a name gives are not always drawn.
How the values were obtained:
Type in all cases: physicochemical
[1] = Water solubility of epinephrine malonate salt (general description); details: no method given
[2] = Stability profile of epinephrine malonate salt (general description); details: 7, 14, 30, 60, 90, 120, or 150 days
[3] = Relative thermodynamic stability studies in EtOH, EtOH/water and IPA/water; solid-state form stability; details: for relative humidity at which the form is kinetically stable: solid state, Form B once formed, Form C (days); for water activity (aw) at which the form is most-stable: room temperature
Method: Relative thermodynamic stability studies in EtOH (crystallization process solvent), EtOH/water and IPA/water were performed. […] The critical water activity for Forms A/B interconversion is between aw=0.4-0.55 (40-55% RH). The transition temperature (Tt) for the enantiotropically related Forms A/C is between RT-40 °C. […] Form C is kinetically stable in solid state (days) at <40% RH.

[4] = Kinetic solubility in water (HPLC); details: 20 °C; for amount nearly dissolved in 0.5 mL of added water: 0.5 mL water; for amount nearly dissolved in 0.5 mL of added water / Approximate Solubility (mg/0.5 mL) / Approximate Solubility / Approximate Solubility (g/mL): 30 min; for Approximate Solubility (mg/0.5 mL) / Approximate Solubility / Content of Salt in VF (mg) 30 min / Approximate Solubility (g/mL): water, HPLC; for Approximate Solubility / Approximate Solubility (g/mL): kinetic solubility
Method: The kinetic solubility of Form A epinephrine malonate salt and bitartrate salt was determined using the procedure described herein. The solid active pharmaceutical ingredient was allowed to equilibrate from 5 °C to ambient temperature for 1 h. Solids were weighed (0.76 g of malonate and 0.20 g of bitartrate) into 4-mL vials containing a magnetic polytetrafluoroethylene (PTFE) stir bar. Water (0.5 mL) was added and samples were stirred at 20 °C. Additional API was gradually added in small portions over 30 min until trace amount of residual solid was present. At 30 min, the content of the nearly dissolved sample was transferred to a volumetric flask (VF), diluted, subjected to HPLC analyses, and adjusted for initial volume of water used.
The HPLC analysis was conducted using an Agilent 1100 with a Phenomenx Gemini C18, 100×4.6 mm, 3.0 um column. The column temperature was 50 °C, wavelength 210 nm, and flow rate 1.2 mL/min. Mobile Phase A was 5:95 MeCN: Buffer and Mobile Phase B was 45:55 MeCN: Buffer.
The kinetic solubility of Form B was determined using the procedure described herein. The solid Form B was allowed to equilibrate from storage temperature (5 °C) to ambient temperature for 1 hour. Solids were weighed (0.025 g of Form B) into a 4-mL vial containing a magnetic PTFE stir bar. Water (0.5 mL) was added and the sample was stirred at 20 °C. Additional API was gradually added in small portions over 30 min until trace amount of residual solid was present. At 30 minutes, the content of the nearly dissolved sample was transferred to a volumetric flask (VF), diluted, subjected to HPLC analyses, and adjusted for initial volume of water used.

[5] = pKa of epinephrine malonate salt Form A (general description); details: no method given
[6] = Dynamic vapor sorption (DVS); details: 25 °C, nitrogen carrier gas, 0-95% relative humidity
Method: Form A was subjected to DVS. DVS is a gravimetric technique that measures how quickly and how much of a solvent is absorbed by a sample such as a dry powder absorbing water. The test was conducted using a Surface Measurement Systems DVS Intrinsic Plus at a temperature of 25 °C and using nitrogen as a carrier gas. The relative humidity range spanned from 0-95% and the maximum equilibration time was 240 minutes. The relative humidity steps included 40-50-60-70-75-70-60-50-40-30-20-10-0-10-20-30-40-50-60-70-75-80-90-95-90-80-75-70-60-50-40-30-20-10-0%.
Form A was subjected to the increasing relative humidity until a change in mass occurred. Once a change in mass resulted, the relative humidity was lowered to determine stability of the resulting mass. The relative humidity was then increased again until another change in mass resulted. Once a change in mass resulted, the relative humidity was lowered to determine stability of the resulting mass.

[7] = relative thermodynamic stability
[8] = listed as Epinephrine Malonate Form A

SMILES | relative humidity at which the form is kinetically stable [3] | amount nearly dissolved in 0.5 mL of added water [4] [mg] | Approximate Solubility (mg/0.5 mL) [4] [mg mg/0.5 mL] | Approximate Solubility [4] [g/mL] | Content of Salt in VF (mg) 30 min [4] [mg] | critical relative humidity for Forms A/B interconversion [3] | critical water activity for Forms A/B interconversion (aw) [3] | water activity (aw) at which the form is most-stable [3, 7] | other results
CNC[C@H](O)c1ccc(O)c(O)c1 [epinephrine malonate salt, epinephrine malonate] | – | – | – | – | – | – | – | – | water solubility compared with other epinephrine salts (maleate, fumarate, hemi sulfate, bitartrate, hydrochloride) ([1]; crystalline form): substantially higher; stability profile [2]: favorable stability profile
CNC[C@H](O)c1ccc(O)c(O)c1 [Form C, epinephrine malonate] | < 40 % RH | – | – | – | – | – | – | – | water activity (aw) at which the form is more stable at 40 °C ([3]; 40 °C, relative thermodynamic stability): 0
CNC[C@H](O)c1ccc(O)c(O)c1 [Form B, epinephrine malonate] | 0-80 % RH | 511 | ~511 | 1.0 | 511 | 40-55 % RH | 0.4-0.55 | ≥ 0.55 | relative humidity for solid-state transition from Form A to Form B ([3]; solid-state): ≥ 40 % RH; formation of Form B in solid state ([3]; solid-state, >55% RH): forms relatively quickly (hours) at >55% RH
CNC[C@H](O)c1ccc(O)c(O)c1 [Epinephrine Bitartrate, epinephrine bitartrate, reference compound] | – | – | ~259 | ~0.52 | 259.45 | – | – | – | amount nearly dissolved in 0.5 mL of added water ([4]; listed as bitartrate salt): 259 mg; Approximate Solubility (g/mL) ([4]; listed as bitartrate salt): ~ 0.52 g/mL
CNC[C@H](O)c1ccc(O)c(O)c1 [Form A, epinephrine malonate] | – | 912 | – | – | – | 40-55 % RH | 0.4-0.55 | ≤ 0.4 | Approximate Solubility (g/mL) [4]: ~ 1.82 g/mL; Approximate Solubility [4, 8]: ~1.82 g/mL; Approximate Solubility (mg/0.5 mL) [4, 8]: ~911 mg mg/0.5 mL; Content of Salt in VF (mg) 30 min [4, 8]: 911.53 mg; solubility ([1]; water): ≥ 1140 mg/mL; pKa [5]: 5.47; changes in mass during DVS [6]: Two changes in mass occurred

— patent US20260355132A1, “POLYMORPHIC FORMS OF EPINEPHRINE MALONATE” (Biothea Pharma, Inc., priority 2023, published 2026)
